# Columns and labels:
# Type in all cases: physicochemical
# [1] = Slurrying of Form A in solvents (Examples 26 to 38); settings: slurrying in few solvents (Examples 26 to 38), 27° C., 17-24 hours
# Procedure: Suvorexant Form-A (500 mg) and methanol (20 ml) were introduced in 100 ml round bottom flask. The heterogeneous mixture so obtained was stirred at 27° C. for 17 hours and the solid substance was then filtered under vacuum. The product was dried at 60° C. in air tray drier to obtain Form B.
# The process of example 26 was repeated wherein methanol was replaced by following solvents to obtain Form B: […]
# [2] = Slurry of Form B in water at about room temperature, solid analysed with XRD
# Procedure: (§1) All PXRD data reported herein are obtained using a Bruker AXS D8 Advance Powder X-ray Diffractometer or a PANalytical X-ray Diffractometer, using copper Kα radiation wavelength 1.5418 Å.
# Suvorexant Form B (500 mg) and water (10 ml) were introduced in round bottom flask. The heterogeneous mixture so obtained was slurried with stirring at about room temperature for about 1 hour. The heterogeneous mixture was divided in to two parts. The first part was filtered under vacuum. The filtered solid was analyzed after 2 hour and 4 hours. The solid obtained after 2 hour and 4 hours were Form B up on analysis with XRD. The second part was stirred over night at room temperature and then filtered under vacuum. The solid obtained from second part was Form B up on analysis with XRD.
# [3] = Slurry of Form B in water at about 80° C., solid analysed with XRD; settings: water slurry at about 80° C. for about 1 hour, filtered at 80° C.
# Procedure: as §1
# Suvorexant Form B (500 mg) and water (10 ml) were introduced in round bottom flask. The heterogeneous mixture so obtained was slurried with stirring at about 80° C. for about 1 hour and the solid substance was then filtered under vacuum at 80° C. The filtered solid was analyzed after 1 hour and 4 hours. The solid obtained after 1 hour and 4 hours were Form B up on analysis with XRD.
Compound,polymorphic form conversion up on slurrying [1],"polymorphic form of the solid up on analysis with XRD ([2]; water slurry at about room temperature for about 1 hour, first part filtered, filtered solid analyzed after 2 hour)","polymorphic form of the solid up on analysis with XRD ([2]; water slurry at about room temperature for about 1 hour, first part filtered, filtered solid analyzed after 4 hours)","polymorphic form of the solid up on analysis with XRD ([2]; water slurry, second part stirred over night at room temperature, then filtered)",polymorphic form of the solid up on analysis with XRD ([3]; filtered solid analyzed after 1 hour),polymorphic form of the solid up on analysis with XRD ([3]; filtered solid analyzed after 4 hours)
"Cc1ccc(-n2nccn2)c(C(=O)N2CCN(c3nc4cc(Cl)ccc4o3)CC[C@H]2C)c1 [Form A, 5-chloro-2-{(5R)-5-methyl-4-[5-methyl-2-(2H-1,2,3-triazol-2-yl)benzoyl]-1,4-diazepan-1 yl}-1,3-benzoxazole]",converted in to Form B,–,–,–,–,–
"Cc1ccc(-n2nccn2)c(C(=O)N2CCN(c3nc4cc(Cl)ccc4o3)CC[C@H]2C)c1 [Suvorexant Form B, 5-chloro-2-{(5R)-5-methyl-4-[5-methyl-2-(2H-1,2,3-triazol-2-yl)benzoyl]-1,4-diazepan-1 yl}-1,3-benzoxazole]",–,Form B,Form B,Form B,Form B,Form B
